Source: patent US20240019437A1, “METHODS FOR THE DIAGNOSIS AND THE TREATMENT OF GRAFT-VERSUS-HOST DISEASE” (INSERM (INSTITUT NATIONAL DE LA SANTÉ ET DE LA RECHERCHE …, priority 2020, published 2024)

Target: T1, CD73 (Homo sapiens, UniProt P21589)
T1 construct: Eight different CD73-expressing DP8α TREG clones were all separately co-cultured; endogenous in cells; host or cells: CD73-expressing DP8α Treg clones (human T cell clones)
T1 sequence (P21589 27-549): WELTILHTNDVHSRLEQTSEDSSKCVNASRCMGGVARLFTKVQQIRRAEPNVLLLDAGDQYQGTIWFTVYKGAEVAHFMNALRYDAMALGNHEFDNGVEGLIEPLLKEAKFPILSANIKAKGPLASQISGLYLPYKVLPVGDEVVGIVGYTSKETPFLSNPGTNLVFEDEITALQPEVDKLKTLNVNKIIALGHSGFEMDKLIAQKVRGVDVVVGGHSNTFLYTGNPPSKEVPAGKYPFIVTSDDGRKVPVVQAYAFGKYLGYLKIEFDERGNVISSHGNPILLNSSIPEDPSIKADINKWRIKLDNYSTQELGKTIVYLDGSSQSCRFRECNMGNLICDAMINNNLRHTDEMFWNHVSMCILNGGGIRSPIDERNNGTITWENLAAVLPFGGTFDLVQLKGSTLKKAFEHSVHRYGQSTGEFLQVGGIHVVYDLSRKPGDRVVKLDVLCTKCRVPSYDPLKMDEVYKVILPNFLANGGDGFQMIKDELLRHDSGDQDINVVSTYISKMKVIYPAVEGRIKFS
Test: Co-culture of CD73-expressing DP8α TREG clones with VPD-stained CD4+ T cells, with or without CD73 inhibitors; proliferation as percentage of VPD LOW CD4+ T cells
Format: cell-based
Conditions: 1:1 co-culture, proliferation measured 6 days later; three concentrations per inhibitor; compared to no treatment

## Nc1ncnc2c1ncn2[C@@H]1O[C@H](COP(=O)([O-])CP(=O)(O)O)[C@@H](O)[C@H]1O.[Na+] [Adenosine 5′-(α,β-methylene)diphosphate sodium salt]
  Effect on suppressive function of CD73-expressing DP8α TREG clones (inhibition of CD4+ T cell proliferation): drastically impaired the suppressive function
